System: serum testosterone
Assay: Testosterone suppression in rats after injection of leuprolide acetate self-encapsulated PLGA microspheres
Format: in vivo, male Sprague-Dawley rats
Conditions: for testosterone suppression: result in words
Method: Evaluation of testosterone suppression in rats following injection of leuprolide acetate self-encapsulated PLGA microspheres: The ability of PLGA self-healing microencapsulation to provide long-term in vivo release was evaluated by assessing long-term testosterone suppression after a single injection of leuprolide acetate self-encapsulated PLGA microspheres in male Sprague-Dawley rats (S5-S8). The treatment of experimental animals was in accordance with University committee on use and care of animals (University of Michigan UCUCA), and all NIH guidelines for the care and use of laboratory animals. Male Sprague-Dawley rats of 6 weeks old were housed in cages and given free access to standard laboratory food and water, and allowed one week to acclimate prior to study initiation. Animals were anesthetized with 2-4% isoflurane administered by a calibrated vaporizer (Midmark, Orchard Park, N.Y., USA). The leuprolide acetate self-encapsulated PLGA microspheres (1×2-month dose), leuprolide acetate solution (1×1-month dose), and blank SM PLGA microspheres without drug (1× dose) in a liquid vehicle (1% w/v carboxymethylcellulose and 2% w/v mannitol), and commercial 1-month Lupron Depot (Abbott Laboratories, North Chicago, Ill., USA) (2× dosing at days 0 and 28) were subcutaneously injected at the back (lower neck portion) of rats (6 animals/study group). […]
PLGA self-healing microencapsulation provides long-term delivery of bioactive large molecules in vivo—Long-term testosterone suppression in rats after single injection of leuprolide acetate self-encapsulated PLGA microspheres: Leuprolide acetate (Mw=1209.6 Da) is commonly used in the treatment of hormone-dependent cancers (e.g., prostate cancer) and gynecologic disorders (e.g., endometriosis and precocious puberty). […] The ability of PLGA self-healing microencapsulation to provide long-term in vivo release was evaluated by assessing long-term testosterone suppression in male Sprague-Dawley rats (six rats/study group) in comparison with commercial Lupron Depot™ and negative controls (FIG. 2C). […]

`CCNC(=O)[C@@H]1CCCN1C(=O)[C@H](CCCNC(=N)N)NC(=O)[C@H](CC(C)C)NC(=O)[C@@H](CC(C)C)NC(=O)[C@H](Cc1ccc(O)cc1)NC(=O)[C@H](CO)NC(=O)[C@H](Cc1c[nH]c2ccccc12)NC(=O)[C@H](Cc1c[nH]cn1)NC(=O)[C@@H]1CCC(=O)N1` [leuprolide solution, Leuprolide acetate] was tested, and the serum testosterone level (one day after subcutaneous injection) was about 5 ng/mL, the testosterone suppression was “failed to provide testosterone suppression below the castration level” and the testosterone suppression (listed as solution leuprolide) was “ineffective to suppress testosterone”.

— patent publication US10220001B2, “Active self-healing biomaterial system” (The Regents of the University of Michigan, priority 2010, dated 2019)
